According to PubChem BioAssay (NCI):
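Interpolation was linear, between the two tested concentrations surrounding the appropriate level; five concentrations were tested over 48 hours in 96-well plates. GI50: concentration for 50% inhibition of growth. TGI marks complete inhibition of growth.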

Assays:
Assay in all cases: DTP human tumour cell line panel, 48 h
[1] = test system: 786-0 renal
[2] = test system: A498 renal
[3] = test system: A549 NSCLC
[4] = test system: ACHN renal
[5] = test system: BT-549 breast
[6] = test system: CAKI-1 renal
[7] = test system: CCRF-CEM leukemia
[8] = test system: COLO 205 colon
[9] = test system: DU-145 prostate
[10] = test system: EKVX NSCLC
[11] = test system: HCC-2998 colon
[12] = test system: HCT-116 colon
[13] = test system: HL-60(TB) leukemia
[14] = test system: HOP-62 NSCLC
[15] = test system: HOP-92 NSCLC
[16] = test system: HS 578T breast
[17] = test system: HT29 colon
[18] = test system: K-562 leukemia
[19] = test system: KM12 colon
[20] = test system: LOX IMVI melanoma
[21] = test system: M14 melanoma
[22] = test system: MALME-3M melanoma
[23] = test system: MCF7 breast
[24] = test system: MDA-MB-231 breast
[25] = test system: MDA-MB-435
[26] = test system: MOLT-4 leukemia
[27] = test system: NCI-H226 lung
[28] = test system: NCI-H23 lung
[29] = test system: NCI-H460 lung
[30] = test system: NCI-H522 lung
[31] = test system: NCI/ADR-RES ovarian
[32] = test system: OVCAR-3 ovarian
[33] = test system: OVCAR-4 ovarian
[34] = test system: OVCAR-5 ovarian
[35] = test system: OVCAR-8 ovarian
[36] = test system: PC-3 prostate
[37] = test system: RPMI-8226 leukemia
[38] = test system: RXF 393 renal
[39] = test system: SF-268 CNS
[40] = test system: SF-295 CNS
[41] = test system: SF-539 CNS
[42] = test system: SK-MEL-2 melanoma
[43] = test system: SK-MEL-28 melanoma
[44] = test system: SK-MEL-5 melanoma
[45] = test system: SK-OV-3 ovarian
[46] = test system: SN12C renal
[47] = test system: SNB-19 CNS
[48] = test system: SNB-75 CNS
[49] = test system: SR leukemia
[50] = test system: SW-620 colon
[51] = test system: T-47D breast
[52] = test system: TK-10 renal
[53] = test system: U251 CNS
[54] = test system: UACC-257 melanoma
[55] = test system: UACC-62 melanoma
[56] = test system: UO-31 renal

N#CC1C(=N)Cc2ccccc2-c2ccccc21 (configuration not stated)
GI50 [1]: 9.66 µM
TGI [1]: 35.2 µM
GI50 [2]: 2.78 µM
TGI [2]: 14 µM
GI50 [3]: 4.58 µM
TGI [3]: > 100 µM
GI50 [4]: 12.8 µM
TGI [4]: 82.5 µM
GI50 [5]: 8.64 µM
TGI [5]: 38.7 µM
GI50 [6]: 3.21 µM
TGI [6]: 24.2 µM
GI50 [7]: 4.42 µM
TGI [7]: > 100 µM
GI50 [8]: 3.82 µM
TGI [8]: 20.9 µM
GI50 [9]: 6.92 µM
TGI [9]: 49.7 µM
GI50 [10]: 4.37 µM
TGI [10]: > 100 µM
GI50 [11]: 9.96 µM
TGI [11]: 26 µM
GI50 [12]: 3.25 µM
TGI [12]: 15.3 µM
GI50 [13]: 3.23 µM
TGI [13]: 16.6 µM
GI50 [14]: 4.59 µM
TGI [14]: 56.2 µM
GI50 [15]: 10 µM
TGI [15]: 36.6 µM
GI50 [16]: 5.38 µM
TGI [16]: 65.3 µM
GI50 [17]: 4.1 µM
TGI [17]: 19.6 µM
GI50 [18]: 2.71 µM
TGI [18]: 89.4 µM
GI50 [19]: 3.43 µM
TGI [19]: 16.1 µM
GI50 [20]: 6.26 µM
TGI [20]: 33.5 µM
GI50 [21]: 2.74 µM
TGI [21]: 10.3 µM
GI50 [22]: 4.2 µM
TGI [22]: 27.4 µM
GI50 [23]: 4.2 µM
TGI [23]: 80.1 µM
GI50 [24]: 8.88 µM
TGI [24]: 35 µM
GI50 [25]: 1.2 µM
TGI [25]: 3.57 µM
GI50 [26]: 5 µM
TGI [26]: 43.4 µM
GI50 [27]: 11.4 µM
TGI [27]: > 100 µM
GI50 [28]: 11.2 µM
TGI [28]: 68.8 µM
GI50 [29]: 3.92 µM
TGI [29]: 18.3 µM
GI50 [30]: 5.72 µM
TGI [30]: 30.6 µM
GI50 [31]: 3.33 µM
TGI [31]: 28.9 µM
GI50 [32]: 3.6 µM
TGI [32]: 13 µM
GI50 [33]: 18 µM
TGI [33]: > 100 µM
GI50 [34]: 9.04 µM
TGI [34]: > 100 µM
GI50 [35]: 5.81 µM
TGI [35]: 41.1 µM
GI50 [36]: 12.7 µM
TGI [36]: > 100 µM
GI50 [37]: 9.03 µM
TGI [37]: > 100 µM
GI50 [38]: 9.84 µM
TGI [38]: 82.9 µM
GI50 [39]: 7.7 µM
TGI [39]: 51.7 µM
GI50 [40]: 2.21 µM
TGI [40]: 9.36 µM
GI50 [41]: 3.92 µM
TGI [41]: 25.2 µM
GI50 [42]: 12 µM
TGI [42]: 28.7 µM
GI50 [43]: 6.36 µM
TGI [43]: 30.3 µM
GI50 [44]: 3.35 µM
TGI [44]: 11.1 µM
GI50 [45]: 4.92 µM
TGI [45]: 41.2 µM
GI50 [46]: 5.55 µM
TGI [46]: 38.8 µM
GI50 [47]: 9.44 µM
TGI [47]: > 100 µM
GI50 [48]: 2.76 µM
TGI [48]: 9.81 µM
GI50 [49]: 3.31 µM
TGI [49]: 20.7 µM
GI50 [50]: 4.22 µM
TGI [50]: 43.4 µM
GI50 [51]: 5.61 µM
TGI [51]: 73.3 µM
GI50 [52]: 20.2 µM
TGI [52]: 63.6 µM
GI50 [53]: 4.15 µM
TGI [53]: 20.6 µM
GI50 [54]: 8.33 µM
TGI [54]: 69.1 µM
GI50 [55]: 3.83 µM
TGI [55]: 17.1 µM
GI50 [56]: 4.06 µM
TGI [56]: 31.2 µM
